Measurements from patent publication US20230212788A1, “NEW METHOD FOR AUTOMATED ON-DEMAND BIOMOLECULAR ARRAY SYNTHESIS” (TECHNISCHE UNIVERSITAT DRESDEN, priority 2020, published 2023).

Columns and labels:
cyclophilin A (CypA) = cyclophilin A (CypA) (Homo sapiens, UniProt P62937); conditions: array probed by fluorescently labelled CypA, FIG. 11
L929 cells = test: Adhesion of L929 cells to peptides synthesized as array; type: cell-based; conditions: array without removing the lipophilic group, FIG. 16
Excerpt: There were synthesized cell adhesive peptide RGDSP (SEQ ID NO: 180) and its mutant GGDSP (SEQ ID NO: 179) as array and investigated their effects on the adhesion to L929 cells. As the chitosan hydrogel coating provides a favorable surface for the adhesion of many types of cells, including L929 cells, the array has been synthesized without removing the lipophilic group. […] (FIG. 16) Therefore, the array technology can be used not only for protein-based high throughput screening, but also for developing novel biomaterials as well as cellular assays.

streptavidin [1] = biological target: T1, streptavidin (Streptomyces avidinii, UniProt P22629); conditions: order of magnitude only; cited from earlier work
T1 sequence (P22629 25-183): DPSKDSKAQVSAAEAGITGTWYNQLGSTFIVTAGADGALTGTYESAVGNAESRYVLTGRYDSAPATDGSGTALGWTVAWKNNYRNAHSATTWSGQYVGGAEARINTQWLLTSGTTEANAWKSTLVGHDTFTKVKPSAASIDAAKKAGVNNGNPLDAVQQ

streptavidin [2] = biological target: T1, streptavidin; test: Ligand array probed by fluorescently labelled streptavidin; type: binding; conditions: FIG. 10
Excerpt: To increase the coupling yield, each coupling step was repeated two times. Same procedure was used in all amide bond formation reactions. After a capping step using 5% acetic anhydride/2% DIPEA, Fmoc was deprotected by immersing the glass slide in piperidine solution (DMF:ethanol 1:1). All amino groups not in the spotted area were acetylated in the first capping step. Therefore, no amide bond formation would be possible in these area in the following synthesis. The array was then probed by fluorescently labelled streptavidin or CypA (FIGS. 10 and 11). […] At this screening condition, the protein cannot distinguish between pM and low nM binders, while it can distinguish these two strong binders from the weaker µM binder iminobiotin.

calcineurin = test: Array incubated with fluorescently labelled calcineurin; type: binding; conditions: FIG. 13
Protocol: In order to probe protein-peptide interactions, a peptide was synthesized on the amphiphilic surface. The known calcineurin-binding peptide PVIVIT (SEQ ID NO: 13) and CsA1-COOH were synthesized on the surface. The glass slide was then incubated with fluorescently labelled calcineurin. […] Therefore, the on-demand peptide array synthesis technology can be used to investigate specific protein-peptide interaction.

Chain of cyclophilin A (CypA) (P62937 whole entry, species assumed): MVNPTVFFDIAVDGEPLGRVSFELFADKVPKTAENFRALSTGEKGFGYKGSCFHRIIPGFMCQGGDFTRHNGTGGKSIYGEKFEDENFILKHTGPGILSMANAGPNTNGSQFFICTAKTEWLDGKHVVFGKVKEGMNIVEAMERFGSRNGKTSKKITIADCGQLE

## O=C(O)CCCC[C@@H]1SC[C@@H]2NC(=O)N[C@@H]21 [Biotin, biotin]
Cyclophilin A (CypA)
  binding of CypA to spot: not

## GGDSP: mutant of cell adhesive peptide RGDSP
L929 cells
  adhesion to L929 cells: poor adhesion

## RGDSP: cell adhesive peptide RGDSP
L929 cells
  adhesion to L929 cells: strong adhesion

## N=C1N[C@H]2[C@H](CS[C@H]2CCCCC(=O)O)N1 [iminobiotin]
Streptavidin [1]
  Kd values / dissociation constant to streptavidin: µM
Streptavidin [2]
  fluorescent signal on spot: much weaker than those of biotin and desthiobiotin

## PVIVIT: known calcineurin-binding peptide PVIVIT
calcineurin
  binding of calcineurin to spot: can bind specifically

## C[C@@H]1NC(=O)N[C@@H]1CCCCCC(=O)O [desthiobiotin]
Streptavidin [1]
  Kd values / dissociation constant to streptavidin: low nM
